From patent publication US8729089B2 (Gilead Sciences, Inc., priority 2006, dated 2014)

How the values were obtained:
[1] = test system: HCV replicon in human hepatoma Huh-7 cell line; experiment: Anti-HCV replicon assay (EC50, luciferase); type: cell-based; details: Hepatitis C virus, Huh-7, 72 h
In short: (§1)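 Cytotoxicity (CC50) measured by CellTiter-Glo and antiviral activity (EC50) by luciferase signal from lysed cells, both by luminescence. Replicon-bearing Huh-7 cells, 6000 per well, incubated 3 days at 37 °C with threefold-diluted compound (0.5% DMSO for DMSO-dissolved compounds).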

[2] = CC50 assay (CellTiter-Glo) in Huh-7 HCV replicon cells; type: cell-based, human; details: human, 3 days incubation, CellTiter-Glo readout
In short: as §1

With `CCOc1nc(NCc2ccc(S(N)(=O)=O)cc2)nc2ccc(-c3ccc(NC(=O)C4(O)CC4)cc3)nc12` [Example 136, 4-{[4-Ethoxy-6-(4-((1-hydroxy-1-cyclopropyl)-carboxamido)-phenyl)-pyrido[3,2-d]pyrimidin-2-ylamino]-methyl}-benzenesulfonamide] the EC50 [1] was under 0.1 µM and the CC50 at 3 days [2] was 5 to 25 µM.
Work on `CCOc1nc(NCc2ccc(S(N)(=O)=O)cc2)nc2ccc(-c3ccc(NC(=O)[C@@H](N)CO)cc3)nc12` [Example 137, (S)-4-{[4-Ethoxy-6-(4-((2-hydroxy-1-aminoethyl)-carboxamido)-phenyl)-pyrido[3,2-d]pyrimidin-2-ylamino]-methyl}-benzenesulfonamide] yielded an EC50 [1] of under 0.1 µM and a CC50 at 3 days [2] of 5 to 25 µM.
For `CCOc1nc(NCc2ccc(S(N)(=O)=O)cc2)nc2ccc(-c3ccc(C(N)=O)cc3)nc12` [Example 138, 4-{[4-Ethoxy-6-(4-carbamoylphenyl)-pyrido[3,2-d]pyrimidin-2-ylamino]-methyl}-benzenesulfonamide], the EC50 [1] was under 0.1 µM and the CC50 at 3 days [2] was 5 to 25 µM.
`CCOc1nc(NCc2ccc(S(N)(=O)=O)cc2)nc2ccc(-c3ccc(F)c(NS(=O)(=O)C4CC4)c3)nc12` [Example 139, 4-{[4-Ethoxy-6-(4-(3-cyclopropanesulfonamido-4-fluoro)-phenyl)-pyrido[3,2-d]pyrimidin-2-ylamino]-methyl}-benzenesulfonamide] showed an EC50 [1] of under 0.1 µM and a CC50 at 3 days [2] of under 5 µM.
In the case of `CCOc1nc(NCc2ccc(S(N)(=O)=O)cc2)nc2ccc(-c3cccc(N(CCO)S(C)(=O)=O)c3)nc12` [Example 140, 4-{[4-Ethoxy-6-(4-(3-(N-2-hydroxy-ethyl)methanesulfonamido)-phenyl)-pyrido[3,2-d]pyrimidin-2-ylamino]-methyl}-benzenesulfonamide], the EC50 [1] is reported as 0.1 to 0.25 µM and the CC50 at 3 days [2] is reported as over 25 µM.
`CCOc1nc(NCc2ccc(S(N)(=O)=O)cc2)nc2ccc(-c3ccc(C(=O)NC(C)(C)CN4CCCC4)cc3)nc12` [Example 142, 4-{[4-Ethoxy-6-(4-(N-(2-(pyrrolidin-1-yl)methyl-2-propyl)-carbamoyl)phenyl)-pyrido[3,2-d]pyrimidin-2-ylamino]-methyl}-benzenesulfonamide] gave an EC50 [1] of under 0.1 µM and a CC50 at 3 days [2] of under 5 µM.
In the case of `CCOc1nc(NCc2ccc(S(N)(=O)=O)cc2)nc2ccc(-c3ccc(C(=O)NC4(C#N)CC4)cc3)nc12` [Example 143, 4-{[4-Ethoxy-6-(4-(N-(1-cyano-1-cyclopropyl)-carbamoyl)phenyl)-pyrido[3,2-d]pyrimidin-2-ylamino]-methyl}-benzenesulfonamide], the EC50 [1] is reported as under 0.1 µM and the CC50 at 3 days [2] is reported as 5 to 25 µM.
`CCOc1nc(NCc2ccc(S(N)(=O)=O)cc2)nc2ccc(-c3ccc(C(=O)NC4CC4)cc3)nc12` [Example 144, 4-{[4-Ethoxy-6-(4-(N-cyclopropylcarbamoyl)phenyl)-pyrido[3,2-d]pyrimidin-2-ylamino]-methyl}-benzenesulfonamide] showed an EC50 [1] of under 0.1 µM and a CC50 at 3 days [2] of 5 to 25 µM.
`CCOc1nc(NCc2ccc(S(N)(=O)=O)cc2)nc2ccc(-c3ccc(F)c(S(N)(=O)=O)c3)nc12` [Example 145, 5-[4-Ethoxy-2-(4-sulfamoyl-benzylamino)-pyrido[3,2-d]pyrimidin-6-yl]-2-fluoro-benzenesulfonamide] gave an EC50 [1] of under 0.1 µM and a CC50 at 3 days [2] of 5 to 25 µM.
Work on `CCOc1nc(NCc2ccc(S(N)(=O)=O)cc2)nc2ccc(-c3ccc(NC(=O)[C@H](C)N)cc3)nc12` [Example 146, 2-Amino-N-{4-[4-ethoxy-2-(4-sulfamoyl-benzylamino)-pyrido[3,2-d]pyrimidin-6-yl]-phenyl}-propionamide] yielded an EC50 [1] of under 0.1 µM and a CC50 at 3 days [2] of 5 to 25 µM.
Compound `CCOc1nc(NCc2ccc(S(N)(=O)=O)cc2)nc2ccc(-c3ccc(NC(=O)[C@@H](N)[C@@H](C)O)cc3)nc12` [Example 147, 2-Amino-N-{4-[4-ethoxy-2-(4-sulfamoyl-benzylamino)-pyrido[3,2-d]pyrimidin-6-yl]-phenyl}-3-hydroxy-butyramide] has an EC50 [1] of under 0.1 µM and a CC50 at 3 days [2] of under 5 µM.
In the case of `CS(=O)(=O)CCNc1nc(NCc2ccc(S(N)(=O)=O)cc2)nc2ccc(-c3cnc(N)s3)nc12` [Example 148, 4-{[4-(2-Methanesulfonylethyl)-amino-6-(2-aminothiazole-5-yl)-pyrido[3,2-d]pyrimidin-2-ylamino]-methyl}-benzenesulfonamide], the EC50 [1] is reported as under 0.1 µM and the CC50 at 3 days [2] is reported as 5 to 25 µM.
In the case of `NS(=O)(=O)c1ccc(CNc2nc(NCC(F)(F)F)c3nc(-c4ccc(F)cc4)ccc3n2)cc1` [Example 149, 4-{[4-(2,2,2-Trifluoroethyl)-amino-6-(4-fluorophenyl)-pyrido[3,2-d]pyrimidin-2-ylamino]-methyl}-benzenesulfonamide], the EC50 [1] is reported as under 0.1 µM and the CC50 at 3 days [2] is reported as 5 to 25 µM.
In the case of `CS(=O)(=O)CCNc1nc(NCc2ccc(S(N)(=O)=O)cc2)nc2ccc(-c3ccc(F)c(Cl)c3)nc12` [Example 150, 4-{[4-(2-Methanesulfonylethyl)-amino-6-(3-chloro-4-fluorophenyl)-pyrido[3,2-d]pyrimidin-2-ylamino]-methyl}-benzenesulfonamide], the EC50 [1] is reported as under 0.1 µM and the CC50 at 3 days [2] is reported as under 5 µM.
For `NS(=O)(=O)c1ccc(CNc2nc(NCC(F)F)c3nc(-c4ccc(F)cc4)ccc3n2)cc1` [Example 151, 4-{[4-(2,2-Difluoroethyl)-amino-6-(4-fluorophenyl)-pyrido[3,2-d]pyrimidin-2-ylamino]-methyl}-benzenesulfonamide], the EC50 [1] was under 0.1 µM and the CC50 at 3 days [2] was under 5 µM.
For `CN(CCS(C)(=O)=O)c1nc(NCc2ccc(S(N)(=O)=O)cc2)nc2ccc(-c3ccc(F)cc3)nc12` [Example 152, 4-{[4-(N-(2-Methanesulfonylethyl)-N-methyl)-amino-6-(4-fluorophenyl)-pyrido[3,2-d]pyrimidin-2-ylamino]-methyl}-benzenesulfonamide], the EC50 [1] was under 0.1 µM and the CC50 at 3 days [2] was under 5 µM.
`CS(=O)(=O)CCNc1nc(NCc2ccc(S(N)(=O)=O)cc2)nc2ccc(-c3ccc(F)cc3)nc12` [Example 153, 4-{[4-(2-Methanesulfonylethyl)-amino-6-(4-fluorophenyl)-pyrido[3,2-d]pyrimidin-2-ylamino]-methyl}-benzenesulfonamide] showed an EC50 [1] of under 0.1 µM and a CC50 at 3 days [2] of under 5 µM.
Compound `CC(C)(N)C(=O)Nc1ccc(-c2ccc3nc(NCc4ccc(S(N)(=O)=O)cc4)nc(NCCS(C)(=O)=O)c3n2)cc1` [Example 154, 4-{[4-(2-Methanesulfonylethyl)-amino-6-(4-((2-amino-2-propyl)-carboxamido)-phenyl)-pyrido[3,2-d]pyrimidin-2-ylamino]-methyl}-benzenesulfonamide] has an EC50 [1] of 0.1 to 0.25 µM and a CC50 at 3 days [2] of over 25 µM.
With `CS(=O)(=O)CCNc1nc(NCc2ccc(S(N)(=O)=O)cc2)nc2ccc(-c3ccc(NC(=O)C4(O)CC4)cc3)nc12` [Example 155, 4-{[4-(2-Methanesulfonylethyl)-amino-6-(4-((1-hydroxy-1-cyclopropyl)-carboxamido)-phenyl)-pyrido[3,2-d]pyrimidin-2-ylamino]-methyl}-benzenesulfonamide] the EC50 [1] was 0.1 to 0.25 µM and the CC50 at 3 days [2] was over 25 µM.
With `N[C@@H](CO)C(=O)Nc1ccc(-c2ccc3nc(NCc4ccc(S(N)(=O)=O)cc4)nc(NCC(F)(F)F)c3n2)cc1` [Example 156, (S)-4-{[4-(2,2,2-Trifluoroethyl)-amino-6-(4-((2-hydroxy-1-aminoethyl)-carboxamido)-phenyl)-pyrido[3,2-d]pyrimidin-2-ylamino]-methyl}-benzenesulfonamide] the EC50 [1] was under 0.1 µM and the CC50 at 3 days [2] was under 5 µM.
For `CS(=O)(=O)N(CCO)c1cccc(-c2ccc3nc(NCc4ccc(S(N)(=O)=O)cc4)nc(NCC(F)F)c3n2)c1` [Example 157, 4-{[4-(2,2-Difluoroethyl)-amino-6-(4-(3-(N-2-hydroxyethyl)methane-sulfonamido)-phenyl)-pyrido[3,2-d]pyrimidin-2-ylamino]-methyl}-benzenesulfonamide], the EC50 [1] was under 0.1 µM and the CC50 at 3 days [2] was over 25 µM.
`NS(=O)(=O)c1ccc(CNc2nc(NCC(F)(F)F)c3nc(-c4ccc(C(=O)NC5CC5)cc4)ccc3n2)cc1` [Example 158, 4-{[4-(2,2,2-Trifluoroethyl)-amino-6-(4-(N-cyclopropylcarbamoyl)-phenyl)-pyrido[3,2-d]pyrimidin-2-ylamino]-methyl}-benzenesulfonamide] gave an EC50 [1] of under 0.1 µM and a CC50 at 3 days [2] of 5 to 25 µM.
In the case of `N#CC1(NC(=O)c2ccc(-c3ccc4nc(NCc5ccc(S(N)(=O)=O)cc5)nc(NCC(F)(F)F)c4n3)cc2)CC1` [Example 159, 4-{[4-(2,2,2-Trifluoroethyl)-amino-6-(4-(N-(1-cyano-1-cyclopropyl)-carbamoyl)phenyl)-pyrido[3,2-d]pyrimidin-2-ylamino]-methyl}-benzenesulfonamide], the EC50 [1] is reported as under 0.1 µM and the CC50 at 3 days [2] is reported as over 25 µM.
Work on `NC(=O)c1ccc(-c2ccc3nc(NCc4ccc(S(N)(=O)=O)cc4)nc(NCC(F)(F)F)c3n2)cc1` [Example 160] yielded an EC50 [1] of under 0.1 µM and a CC50 at 3 days [2] of 5 to 25 µM.
Work on `CS(=O)(=O)N(CCO)c1cccc(-c2ccc3nc(NCc4ccc(S(N)(=O)=O)cc4)nc(NCC(F)(F)F)c3n2)c1` [Example 161, 4-{[4-(2,2,2-Trifluoroethyl)-amino-6-(4-(3-(N-2-hydroxyethyl)methane-sulfonamido)-phenyl)-pyrido[3,2-d]pyrimidin-2-ylamino]-methyl}-benzenesulfonamide] yielded an EC50 [1] of under 0.1 µM and a CC50 at 3 days [2] of over 25 µM.
`CS(=O)(=O)CCNc1nc(NCc2ccc(S(N)(=O)=O)cc2)nc2ccc(-c3ccc(C(=O)NC4CC4)cc3)nc12` [Example 162, 4-{[4-(2-Methanesulfonylethyl)-amino-6-(4-(N-cyclopropylcarbamoyl)-phenyl)-pyrido[3,2-d]pyrimidin-2-ylamino]-methyl}-benzenesulfonamide] gave an EC50 [1] of 0.1 to 0.25 µM and a CC50 at 3 days [2] of over 25 µM.
For `CS(=O)(=O)CCNc1nc(NCc2ccc(S(N)(=O)=O)cc2)nc2ccc(-c3ccc(F)c(NS(=O)(=O)C4CC4)c3)nc12` [Example 164, 4-{[4-(2-Methanesulfonylethyl)-amino-6-(4-(3-cyclopropanesulfonamido-4-fluoro)-phenyl)-pyrido[3,2-d]pyrimidin-2-ylamino]-methyl}-benzenesulfonamide], the EC50 [1] was 0.1 to 0.25 µM and the CC50 at 3 days [2] was over 25 µM.
